The source made the active and inactive calls.
Tests used:
[1] = target: T1, Acyl-CoA dehydrogenase family member 10 (Homo sapiens, UniProt Q6JQN1)
T1 sequence (Q6JQN1 whole entry): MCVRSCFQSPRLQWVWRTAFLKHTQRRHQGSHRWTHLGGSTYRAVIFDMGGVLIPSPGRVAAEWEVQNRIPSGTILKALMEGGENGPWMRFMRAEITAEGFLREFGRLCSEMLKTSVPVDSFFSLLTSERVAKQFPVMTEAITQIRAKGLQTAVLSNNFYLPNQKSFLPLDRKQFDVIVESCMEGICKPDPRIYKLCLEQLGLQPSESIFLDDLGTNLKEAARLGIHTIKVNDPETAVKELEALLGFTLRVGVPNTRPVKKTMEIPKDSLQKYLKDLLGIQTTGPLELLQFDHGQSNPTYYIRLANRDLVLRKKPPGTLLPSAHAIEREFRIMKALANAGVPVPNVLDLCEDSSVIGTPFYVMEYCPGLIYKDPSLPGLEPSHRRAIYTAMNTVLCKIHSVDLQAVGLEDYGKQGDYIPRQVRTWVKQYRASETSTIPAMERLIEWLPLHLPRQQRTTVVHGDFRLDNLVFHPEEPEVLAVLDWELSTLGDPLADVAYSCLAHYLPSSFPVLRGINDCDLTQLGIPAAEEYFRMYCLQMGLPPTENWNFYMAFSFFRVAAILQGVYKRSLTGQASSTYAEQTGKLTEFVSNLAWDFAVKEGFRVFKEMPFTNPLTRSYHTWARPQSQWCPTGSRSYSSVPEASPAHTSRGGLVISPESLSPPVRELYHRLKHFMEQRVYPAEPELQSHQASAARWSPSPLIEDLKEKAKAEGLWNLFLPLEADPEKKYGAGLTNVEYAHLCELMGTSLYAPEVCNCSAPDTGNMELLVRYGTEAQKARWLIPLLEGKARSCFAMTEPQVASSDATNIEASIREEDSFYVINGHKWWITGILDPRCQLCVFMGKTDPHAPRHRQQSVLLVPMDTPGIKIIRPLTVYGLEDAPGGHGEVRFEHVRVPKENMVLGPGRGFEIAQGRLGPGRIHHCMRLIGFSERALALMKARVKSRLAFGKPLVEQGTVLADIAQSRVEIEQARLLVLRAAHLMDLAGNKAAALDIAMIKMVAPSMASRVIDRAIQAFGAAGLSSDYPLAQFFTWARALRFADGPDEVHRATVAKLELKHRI

[2] = target: Atypical kinase COQ8A, mitochondrial (Homo sapiens, UniProt Q8NI60)
[3] = target: T2, Isoleucine--tRNA ligase, mitochondrial (Homo sapiens, UniProt Q9NSE4)
T2 sequence (Q9NSE4 whole entry): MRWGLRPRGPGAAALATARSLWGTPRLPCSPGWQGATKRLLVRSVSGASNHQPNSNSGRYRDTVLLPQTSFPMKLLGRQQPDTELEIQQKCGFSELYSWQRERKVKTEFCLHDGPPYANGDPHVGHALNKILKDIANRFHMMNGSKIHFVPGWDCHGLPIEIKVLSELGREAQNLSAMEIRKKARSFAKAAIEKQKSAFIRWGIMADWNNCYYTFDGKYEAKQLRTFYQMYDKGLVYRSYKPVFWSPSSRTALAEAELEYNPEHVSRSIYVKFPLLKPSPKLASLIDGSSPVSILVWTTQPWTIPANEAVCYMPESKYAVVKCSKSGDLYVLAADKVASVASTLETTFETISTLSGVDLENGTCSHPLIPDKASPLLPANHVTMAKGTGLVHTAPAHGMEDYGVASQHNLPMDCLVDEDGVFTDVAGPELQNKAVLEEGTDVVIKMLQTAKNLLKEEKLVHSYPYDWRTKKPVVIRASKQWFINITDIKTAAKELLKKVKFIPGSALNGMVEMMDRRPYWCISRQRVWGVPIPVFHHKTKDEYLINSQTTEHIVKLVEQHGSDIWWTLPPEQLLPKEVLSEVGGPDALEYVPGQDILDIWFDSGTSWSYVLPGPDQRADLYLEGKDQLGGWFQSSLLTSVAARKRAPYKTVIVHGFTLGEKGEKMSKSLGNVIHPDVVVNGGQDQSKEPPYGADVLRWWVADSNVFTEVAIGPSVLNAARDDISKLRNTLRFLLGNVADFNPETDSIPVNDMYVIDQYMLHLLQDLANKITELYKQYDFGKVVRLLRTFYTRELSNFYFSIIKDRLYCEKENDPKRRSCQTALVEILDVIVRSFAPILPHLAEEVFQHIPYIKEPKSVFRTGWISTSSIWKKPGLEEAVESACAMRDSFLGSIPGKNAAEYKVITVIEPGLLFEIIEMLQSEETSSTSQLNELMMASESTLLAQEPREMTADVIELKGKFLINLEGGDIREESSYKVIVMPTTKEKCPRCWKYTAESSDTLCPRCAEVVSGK

[4] = target: Choline-phosphate cytidylyltransferase A (Homo sapiens, UniProt P49585)
[5] = target: T3, Phosphatidylinositol 5-phosphate 4-kinase type-2 gamma (Homo sapiens, UniProt Q8TBX8)
T3 sequence (Q8TBX8 whole entry): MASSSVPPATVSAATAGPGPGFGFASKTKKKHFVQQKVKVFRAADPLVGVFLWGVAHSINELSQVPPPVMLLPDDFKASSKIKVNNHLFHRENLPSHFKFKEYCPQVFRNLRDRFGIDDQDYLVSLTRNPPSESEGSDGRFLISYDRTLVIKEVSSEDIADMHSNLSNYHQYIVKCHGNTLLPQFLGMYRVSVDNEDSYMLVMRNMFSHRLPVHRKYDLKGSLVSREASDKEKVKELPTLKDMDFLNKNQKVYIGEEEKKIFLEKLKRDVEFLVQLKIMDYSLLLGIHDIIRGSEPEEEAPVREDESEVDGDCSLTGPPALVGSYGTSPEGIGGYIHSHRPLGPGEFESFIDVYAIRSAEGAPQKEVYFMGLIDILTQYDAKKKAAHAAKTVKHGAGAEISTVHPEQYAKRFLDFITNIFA

[6] = target: Dual specificity testis-specific protein kinase 2 (Homo sapiens, UniProt Q96S53)
Also: in the data inactive means no Kd found up to 30 µM.

Atypical kinase COQ8A, mitochondrial, sequence (Q8NI60 whole entry): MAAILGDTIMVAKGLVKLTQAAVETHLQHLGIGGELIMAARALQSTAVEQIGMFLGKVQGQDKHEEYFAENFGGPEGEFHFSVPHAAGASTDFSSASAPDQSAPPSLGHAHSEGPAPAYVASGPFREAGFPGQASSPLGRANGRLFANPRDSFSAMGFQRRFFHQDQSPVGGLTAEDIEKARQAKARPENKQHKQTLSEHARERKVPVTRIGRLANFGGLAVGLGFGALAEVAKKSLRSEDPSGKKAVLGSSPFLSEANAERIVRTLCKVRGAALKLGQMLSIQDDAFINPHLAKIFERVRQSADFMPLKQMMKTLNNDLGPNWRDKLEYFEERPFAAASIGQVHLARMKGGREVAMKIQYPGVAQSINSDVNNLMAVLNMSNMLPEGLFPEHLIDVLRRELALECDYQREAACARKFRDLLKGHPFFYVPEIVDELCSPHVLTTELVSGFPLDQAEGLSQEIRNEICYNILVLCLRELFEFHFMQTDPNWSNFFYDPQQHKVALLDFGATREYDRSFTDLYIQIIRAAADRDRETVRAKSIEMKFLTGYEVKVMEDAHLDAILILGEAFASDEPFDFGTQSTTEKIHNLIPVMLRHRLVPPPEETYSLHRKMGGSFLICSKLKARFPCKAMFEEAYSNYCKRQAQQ
Dual specificity testis-specific protein kinase 2, sequence (Q96S53 whole entry): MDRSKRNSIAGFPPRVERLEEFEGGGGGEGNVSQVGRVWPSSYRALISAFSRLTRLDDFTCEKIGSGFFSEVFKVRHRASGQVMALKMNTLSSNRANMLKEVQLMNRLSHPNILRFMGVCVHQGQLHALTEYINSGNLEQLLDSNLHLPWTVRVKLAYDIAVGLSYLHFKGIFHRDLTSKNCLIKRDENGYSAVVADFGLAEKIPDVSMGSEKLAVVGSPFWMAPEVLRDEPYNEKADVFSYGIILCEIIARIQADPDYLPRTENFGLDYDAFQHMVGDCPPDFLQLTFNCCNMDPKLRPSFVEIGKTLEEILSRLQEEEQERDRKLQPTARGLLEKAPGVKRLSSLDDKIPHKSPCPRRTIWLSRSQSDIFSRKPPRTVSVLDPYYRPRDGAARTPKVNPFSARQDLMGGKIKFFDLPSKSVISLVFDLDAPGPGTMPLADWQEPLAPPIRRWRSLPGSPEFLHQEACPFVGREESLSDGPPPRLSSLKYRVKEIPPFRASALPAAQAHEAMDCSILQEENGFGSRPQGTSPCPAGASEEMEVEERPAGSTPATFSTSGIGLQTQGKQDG
Choline-phosphate cytidylyltransferase A, sequence (P49585 whole entry): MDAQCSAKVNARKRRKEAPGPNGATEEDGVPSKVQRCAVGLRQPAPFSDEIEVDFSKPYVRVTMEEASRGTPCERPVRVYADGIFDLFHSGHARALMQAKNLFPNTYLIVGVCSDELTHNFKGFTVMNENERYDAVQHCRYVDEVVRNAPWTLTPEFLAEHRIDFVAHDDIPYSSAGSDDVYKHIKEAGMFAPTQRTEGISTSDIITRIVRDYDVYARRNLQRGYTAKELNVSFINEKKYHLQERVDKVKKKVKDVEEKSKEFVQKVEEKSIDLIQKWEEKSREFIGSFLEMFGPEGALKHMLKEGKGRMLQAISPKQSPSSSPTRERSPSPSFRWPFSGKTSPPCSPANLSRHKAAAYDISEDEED

Kd [1] | Kd [2] | Kd [3] | Kd [4] | Kd [5] | Kd [6] | SMILES
> 30 µM (inactive) | > 30 µM (inactive) | > 30 µM (inactive) | – | – | > 30 µM (inactive) | Cc1csc(-c2nnc(Nc3ccc(Oc4ncccc4-c4ccnc(N)n4)cc3)c3ccccc23)c1 [AMG-900]
> 30 µM (inactive) | – | – | > 30 µM (inactive) | – | – | CNC(=O)c1ccccc1Sc1ccc2c(/C=C/c3ccccn3)n[nH]c2c1 [AXITINIB]
– | > 30 µM (inactive) | – | > 30 µM (inactive) | > 30 µM (inactive) | – | Cc1cc(C(=O)NOCCO)c(Nc2ccc(I)cc2F)n(C)c1=O [AZD-8330]
> 30 µM (inactive) | > 30 µM (inactive) | – | > 30 µM (inactive) | > 30 µM (inactive) | – | Cn1cnc2c(F)c(Nc3ccc(Br)cc3F)c(C(=O)NOCCO)cc21 [BINIMETINIB]
> 30 µM (inactive) | > 30 µM (inactive) | – | > 30 µM (inactive) | > 30 µM (inactive) | – | C#Cc1cccc(Nc2ncnc3cc(OC)c(OCCCCCCC(=O)NO)cc23)c1 [CUDC-101]
> 30 µM (inactive) | > 30 µM (inactive) | > 30 µM (inactive) | – | > 30 µM (inactive) | > 30 µM (inactive) | Cc1nc2cc(-n3ncc(C(=O)c4cc5ccccc5[nH]4)c3N)ccc2[nH]1 [FGFR INHIBITOR DEBIO 1347]
> 30 µM (inactive) | 12.2 µM | > 30 µM (inactive) | – | > 30 µM (inactive) | > 30 µM (inactive) | Cc1cccc(-c2nn3c(c2-c2ccnc4ccc(C(N)=O)cc24)CCC3)n1 [GALUNISERTIB]
1.11 µM (active) | > 30 µM (inactive) | – | > 30 µM (inactive) | – | > 30 µM (inactive) | CCn1cc(-c2ccnc3[nH]c(-c4cccc(CN(C)C)c4)cc23)c(-c2ccc(NC(=O)N(C)C)cc2)n1 [GSK-1070916]
> 30 µM (inactive) | > 30 µM (inactive) | – | > 30 µM (inactive) | > 30 µM (inactive) | > 30 µM (inactive) | COc1ccc(S(=O)(=O)N(C(C)=O)c2ccccc2/C=C/c2cc[n+]([O-])cc2)cc1 [HMN-214]
> 30 µM (inactive) | > 30 µM (inactive) | > 30 µM (inactive) | > 30 µM (inactive) | > 30 µM (inactive) | – | CNC(=O)c1cccc2cc(Oc3ccnc4cc(OCC5(N)CC5)c(OC)cc34)ccc12 [LUCITANIB]
> 30 µM (inactive) | > 30 µM (inactive) | > 30 µM (inactive) | > 30 µM (inactive) | > 30 µM (inactive) | – | NC1(c2ccc(-c3nc4ccn5c(=O)[nH]nc5c4cc3-c3ccccc3)cc2)CCC1 [MK-2206]
> 30 µM (inactive) | > 30 µM (inactive) | > 30 µM (inactive) | – | > 30 µM (inactive) | > 30 µM (inactive) | Cc1nc(Nc2n[nH]c3c2CN(C(=O)N[C@H](CN(C)C)c2ccccc2)C3(C)C)c2sccc2n1 [PF-03758309]
> 30 µM (inactive) | > 30 µM (inactive) | – | – | > 30 µM (inactive) | > 30 µM (inactive) | CO[C@H]1C[C@@H]2CC[C@@H](C)[C@@](O)(O2)C(=O)C(=O)N2CCCC[C@H]2C(=O)O[C@H]([C@H](C)C[C@@H]2CC[C@@H](OP(C)(C)=O)[C@H](OC)C2)CC(=O)[C@H](C)/C=C(\C)[C@@H](O)[C@@H](OC)C(=O)[C@H](C)C[C@H](C)/C=C/C=C/C=C/1C [RIDAFOROLIMUS]
> 30 µM (inactive) | > 30 µM (inactive) | > 30 µM (inactive) | – | > 30 µM (inactive) | > 30 µM (inactive) | N#CC1(c2ccc(NC(=O)c3cccnc3NCc3ccncc3)cc2)CCCC1 [RIVOCERANIB]
> 30 µM (inactive) | – | > 30 µM (inactive) | – | – | > 30 µM (inactive) | O=C(NOCCO)c1cc(CN2OCCCC2=O)c(F)c(F)c1Nc1ccc(I)cc1F [RO-4987655]
> 30 µM (inactive) | > 30 µM (inactive) | > 30 µM (inactive) | – | > 30 µM (inactive) | > 30 µM (inactive) | O=c1[nH]ccc2cc(OC3CCNCC3)ccc12 [SAR-407899 FREE BASE]
> 30 µM (inactive) | > 30 µM (inactive) | > 30 µM (inactive) | > 30 µM (inactive) | > 30 µM (inactive) | – | CO[C@H]1C[C@@H]2CC[C@@H](C)[C@@](O)(O2)C(=O)C(=O)N2CCCC[C@H]2C(=O)O[C@H]([C@H](C)C[C@@H]2CC[C@@H](OC(=O)C(C)(CO)CO)[C@H](OC)C2)CC(=O)[C@H](C)/C=C(\C)[C@@H](O)[C@@H](OC)C(=O)[C@H](C)C[C@H](C)/C=C/C=C/C=C/1C [TEMSIROLIMUS]
> 30 µM (inactive) | > 30 µM (inactive) | – | – | > 30 µM (inactive) | > 30 µM (inactive) | O=C1NC(=O)[C@@H](c2cn3c4c(cccc24)CCC3)[C@@H]1c1c[nH]c2ccccc12 [TIVANTINIB]
– | > 30 µM (inactive) | – | > 30 µM (inactive) | > 30 µM (inactive) | – | CC(C)c1cc(CNc2nc(Nc3cc(C4CC4)[nH]n3)cc(N3CCN(C)CC3)n2)on1 [XL-228]
– | > 30 µM (inactive) | > 30 µM (inactive) | > 30 µM (inactive) | > 30 µM (inactive) | – | C[C@@H](N)c1ccc(C(=O)Nc2ccnc3[nH]ccc23)cc1 [Y-39983]

SMILES | Kd [1] | Kd [2] | Kd [3] | Kd [4] | Kd [5] | Kd [6]
CC(=O)c1cnc2ccc(-c3cc(Cl)c(O)c(Cl)c3)nc2c1N[C@H]1CC[C@H](CN(C)C)CC1 | > 30 µM (inactive) | > 30 µM (inactive) | > 30 µM (inactive) | > 30 µM (inactive) | 0.003 µM | –
O=C(Nc1nc2cccc(-c3ccc(CN4CCS(=O)(=O)CC4)cc3)n2n1)C1CC1 [FILGOTINIB] | > 30 µM (inactive) | > 30 µM (inactive) | > 30 µM (inactive) | > 30 µM (inactive) | > 30 µM (inactive) | –
O=C(Nc1cc(C(F)(F)F)cc(C(F)(F)F)c1)c1cc(Cl)ccc1O [IMD-0354] | > 30 µM (inactive) | > 30 µM (inactive) | – | > 30 µM (inactive) | > 30 µM (inactive) | –
CCCCCCCCCCCCCCCCCCOP(=O)([O-])OC1CC[N+](C)(C)CC1 [PERIFOSINE] | > 30 µM (inactive) | > 30 µM (inactive) | > 30 µM (inactive) | > 30 µM (inactive) | > 30 µM (inactive) | –
